Reference: US7643943B2, “Methods for monitoring drug activities in vivo” (Wyeth LLC, priority 2003, dated 2010)

Assays:
[1] = test system: transcripts in patient PBMCs; test: Spearman's rank correlation of changes in PBMC gene expression (HgU95A arrays) with cumulative AUCsum; assay type: in vivo, human; settings: change in PBMC expression from baseline
From the text: Consent for the pharmacogenomic portion of the clinical study was received and the project was approved by the local Institutional Review Boards at the participating clinical sites. Blood samples for pharmacogenomic characterization were drawn into cell purification tubes (CPT, Becton Dickinson) prior to therapy and following approximately 8 and 16 weeks of treatment. All blood samples were shipped overnight to the Wyeth Department of Molecular Medicine in Andover, Mass., and PBMCs were isolated from the whole blood samples (8 mL) in CPT tubes according to the manufacturer's procedure. For expression profiling analyses, total RNA was isolated from PBMC pellets using the RNeasy mini kit (Qiagen, Valencia, Calif.) and labeled probe for oligonucleotide arrays was prepared using a modification of the procedure described by Lockhart, et al., NAT. BIOTECHNOL., 14:1675-1680 (1996). […] The “average difference” values for each transcript were normalized to “frequency” values using the scaled frequency normalization method (Hill, et al, GENOME BIOL. 2:research0055.1-0055.13 (2001)) in which the average differences for 11 control cRNAs with known abundance spiked into each hybridization solution were used to generate a global calibration curve. This calibration was then used to convert average difference values for all transcripts to frequency estimates, stated in units of parts per million ranging from 1:300,000 (˜3 parts per million (ppm)) to 1:1000 (1000 ppm). PBMC gene expression data were normalized by the scaled frequency normalization method as described above. […] The filter which removes transcripts called absent in all samples is based upon the absent/present decision call made by the […] 3.2 software, which reflects the relative intensity of hybridization of the labeled probes to perfectly matched oligonucleotides versus hybridization to mismatched oligonucleotides for each transcript on the HgU95A chip. The filter that removes transcripts with a frequency of less than 10 ppm in all samples is designed to remove low abundance transcripts which may have variable expression in technical replicates. […] Changes from pretreatment levels were calculated based on log-transformed expression levels. […] Pairwise correlations were calculated to assess the association between individually derived exposure metrics and gene expression levels measured by HgU95A Affymetrix microarrays during the course of therapy. Correlations were run for two pharmacokinetic parameters—cumulative AUC and cumulative AUCsum, and for four measures of expression level—log2-transformed scaled frequency at 8 weeks, log2-transformed scaled frequency at 16 weeks, the difference between log2-transformed scaled frequency at 8 weeks and baseline, and the difference between log2-transformed scaled frequency at 16 weeks and baseline. Spearman's rank correlations, which are not sensitive to potential non-normal distributional properties of the pharmacokinetic parameters, were computed. The p-value for the hypothesis that the correlation was equal to 0 was calculated for each pairwise correlation. […] The results of permutation tests run for cumulative AUCsum vs expression change at 8 weeks and at 16 weeks are shown in Tables 5a and 5b. […] Table 6 also includes FARP1 (Accession No. A1701049). […] Accession numbers for the 19 transcripts are presented in Table 6, along with columns indicating the coefficient of variation observed in healthy individuals (% CV), the p-value observed in the Spearman correlation, the actual magnitude of the correlation, and the corresponding gene names.

clinical = settings: human, whole blood
Method: In a randomized, double-blind, multicenter trial, once-weekly intravenous doses of 25-, 75-, or 250-mg of CCI-779 were administered to patients with advanced renal cancer that were either previously treated, or untreated and not appropriate candidates for high dose interlukin-2 therapy. Whole blood for CCI-779 and metabolite concentrations was drawn for population pharmacokinetic analysis, and Bayesian-predicted area under the concentration-time curves for parent drug (AUC), parent plus metabolite (AUCsum), and cumulative AUC and AUCsum were derived.
For CCI-779 clearance, factors for dose, attenuation of exposure with multiple-dose, and effect of body surface area were included.
The following examples were based on a randomized, double-blind, multicenter, outpatient phase 2 study of CCI-779 administered by 30 minute intravenous infusion (via an automatic dispensing pump) in patients with advanced RCC. Eligible patients were randomly assigned to treatment in a 1:1:1 ratio to receive 25 mg, 75 mg, or 250 mg of CCI-779 weekly until evidence of disease progression.
Full pharmacokinetic profiling was planned in a subset of patients, with remaining patients to provide sparse sampling.
The bioanalytical method for CCI-779 was performed using whole blood in a liquid chromatography/tandem mass spectrometry (LC/MS/MS) procedure with deuterated internal standard.
In order to characterize the pharmacokinetic profiles of patients providing sparse blood sampling, fully and sparsely sampled patient data were analyzed collectively using a population pharmacokinetic method and the NONMEM application (version 1.0, Revision 5.0 on Windows NT 4.0 computer with Pentium processor, NONMEM Project Group, University of California at San Francisco, Calif.). […] Data were therefore modeled separately and segregated by analyte into two separate data sets with dose, time/duration of administration, and demographic information. […] Construction of the NONMEM infile was performed using SAS (version 8.1) on a Sun Microsystems mainframe computer with Sun OS 5.8. […] In both cases, the model-derived value for AUC for a given patient and analyte were obtained from the quotient of CCI-779 Dose/Clearance (CL), in which CL was obtained from Bayesian estimation and the POSTHOC option of NONMEM.
During model building, an exponential error model was applied to the kinetic model.

[2] = Pharmacodynamic correlation of drug exposure metrics to severity and duration of adverse events; assay type: in vivo, human
Method: For the cumulative dose drug exposure, cumulative AUCsum was determined. Each patients' specific dosing history while on trial medication was determined and used to derive respective AUCs experienced by each patient for the duration of time from start of treatment to time of highest severity adverse event. This test included all the data, irrespective of AE severity, and was analyzed using the asymptotic Mantel-Haenszel Test for Ordinal Association. A severity score of “1” indicating the lowest severity and “3” indicating the highest severity was used. […] Pharmacokinetic parameters were grouped into low, medium and high categories with an equal number of patients in each category. […] Estimation of cumulative exposure was determined for each patient as described above. Duration of an AE was determined by calculating the time interval for which a given patient experienced a given AE. […] The correlations between AE duration and the continuous pharmacokinetic variables were calculated using Spearman rank correlation test (SAS Institute Inc., SAS® […] REFERENCE, Version 8, Cary, N C: SAS Institute Inc., 1999). […] Results of the pharmacodynamic analysis using AUCsum (discrete predictor), cumulative AUCsum (cumulative predictor variable), Ceoi (peak exposure predictor) are shown in Table 12 as derived from 49 differing adverse events recorded for those patients included in the population analysis. […] Cumulative AUCsum refers to aggregate AUCsum based on individual patient dosing history. Ceoi is the CCI-779 concentration observed at end of infusion.

[3] = Pharmacokinetics of CCI-779 in patients with cancer following intravenous administration; settings: human, whole blood
From the text: The pharmacokinetics of CCI-779 is being studied in patients with cancer receiving CCI-779 either alone or in combination with other chemotherapeutic agents following intravenous administration. Intravenous dosage schedules previously investigated include a cyclical schedule (daily for 5 days every two weeks) and a once-weekly regimen. […] The following examples evaluated the safety, efficacy, and pharmacokinetic/pharmacodynamic relationship to clinical response of three doses of CCI-779, when administered to patients with advanced, refractory renal cell cancer (RCC).

Question: Which “Correlation with AUCsum at 16 weeks: KIAA0857” value ([1]; AB020664, P-value 0.0006) does the source give for `CO[C@H]1C[C@@H]2CC[C@@H](C)[C@@](O)(O2)C(=O)C(=O)N2CCCC[C@H]2C(=O)O[C@H]([C@H](C)C[C@@H]2CC[C@@H](OC(=O)C(C)(CO)CO)[C@H](OC)C2)CC(=O)[C@H](C)/C=C(\C)[C@@H](O)[C@@H](OC)C(=O)[C@H](C)C[C@H](C)/C=C/C=C/C=C/1C` [CCI-779] here?
Answer: 0.69

Question: What about the “Correlation with AUCsum at 8 weeks: KIAA0857” value ([1]; AB020664, P-value 0.9627) of the same compound?
Answer: 0.01

Question: And the “Correlation with AUCsum at 16 weeks: B4GALT3” value ([1]; AF038661, P-value 0.0002)?
Answer: 0.73

Question: And the “Correlation with AUCsum at 8 weeks: B4GALT3” value ([1]; AF038661, P-value 0.2589)?
Answer: 0.21

Question: What about the “Correlation with AUCsum at 16 weeks: SLC25A11” value ([1]; AF070548, P-value 0.0006) of the same compound?
Answer: 0.69

Question: What about the “Correlation with AUCsum at 8 weeks: SLC25A11” value ([1]; AF070548, P-value 0.0881) of the same compound?
Answer: 0.32

Question: What about the “Correlation with AUCsum at 16 weeks: IKBKG” value ([1]; AF074382, P-value 0.0007) of the same compound?
Answer: 0.68

Question: What about the “Correlation with AUCsum at 8 weeks: IKBKG” value ([1]; AF074382, P-value 0.1013) of the same compound?
Answer: 0.30

Question: And the “Correlation with AUCsum at 16 weeks: UNK_AI147237” value ([1]; AI147237, P-value 0.0004)?
Answer: 0.70

Question: What about the “Correlation with AUCsum at 8 weeks: UNK_AI147237” value ([1]; AI147237, P-value 0.0877) of the same compound?
Answer: 0.32

Question: And the “Correlation with AUCsum at 16 weeks: COX6A1” value ([1]; AI540925, P-value 0.0002)?
Answer: −0.73

Question: What about the “Correlation with AUCsum at 8 weeks: COX6A1” value ([1]; AI540925, P-value 0.0050) of the same compound?
Answer: −0.50

Question: What about the “Correlation with AUCsum at 16 weeks: FARP1” value ([1]; AI701049, P-value 0.001) of the same compound?
Answer: 0.66

Question: What about the “Correlation with AUCsum at 8 weeks: FARP1” value ([1]; AI701049, P-value 0.0089) of the same compound?
Answer: 0.47

Question: What about the “Correlation with AUCsum at 16 weeks: U2AF65” value ([1]; AI762438, P-value 0.0001) of the same compound?
Answer: 0.74

Question: What about the “Correlation with AUCsum at 8 weeks: U2AF65” value ([1]; AI762438, P-value 0.2209) of the same compound?
Answer: 0.23

Question: And the “Correlation with AUCsum at 16 weeks: UNK_AL022318” value ([1]; AL022318, P-value 0.0005)?
Answer: 0.69

Question: And the “Correlation with AUCsum at 8 weeks: UNK_AL022318” value ([1]; AL022318, P-value 0.2617)?
Answer: 0.21

Question: And the “Correlation with AUCsum at 16 weeks: UNK_AL046394” value ([1]; AL046394, P-value 0.0002)?
Answer: 0.72

Question: What about the “Correlation with AUCsum at 8 weeks: UNK_AL046394” value ([1]; AL046394, P-value 0.0999) of the same compound?
Answer: 0.31

Question: What about the “Correlation with AUCsum at 16 weeks: UNK_H98552” value ([1]; H98552, P-value 0.0003) of the same compound?
Answer: 0.71

Question: And the “Correlation with AUCsum at 8 weeks: UNK_H98552” value ([1]; H98552, P-value 0.0308)?
Answer: 0.39

Question: And the “Correlation with AUCsum at 16 weeks: DPEP1” value ([1]; J05257, P-value 0.0005)?
Answer: 0.69

Question: And the “Correlation with AUCsum at 8 weeks: DPEP1” value ([1]; J05257, P-value 0.0348)?
Answer: 0.39

Question: And the “Correlation with AUCsum at 16 weeks: CYP11A” value ([1]; M14565, P-value 0.0006)?
Answer: 0.69

Question: What about the “Correlation with AUCsum at 8 weeks: CYP11A” value ([1]; M14565, P-value 0.0838) of the same compound?
Answer: 0.32

Question: What about the “Correlation with AUCsum at 16 weeks: TNNT1” value ([1]; M19309, P-value 0.0004) of the same compound?
Answer: 0.70

Question: And the “Correlation with AUCsum at 8 weeks: TNNT1” value ([1]; M19309, P-value 0.2684)?
Answer: 0.21

Question: What about the “Correlation with AUCsum at 16 weeks: PML” value ([1]; M79463, P-value 0.0007) of the same compound?
Answer: 0.68

Question: What about the “Correlation with AUCsum at 8 weeks: PML” value ([1]; M79463, P-value 0.0378) of the same compound?
Answer: 0.38

Question: And the “Correlation with AUCsum at 16 weeks: SLC19A1” value ([1]; U17566, P-value 0.0007)?
Answer: 0.68

Question: What about the “Correlation with AUCsum at 8 weeks: SLC19A1” value ([1]; U17566, P-value 0.1220) of the same compound?
Answer: 0.29

Question: And the “Correlation with AUCsum at 16 weeks: USP11” value ([1]; U44839, P-value 0.0001)?
Answer: 0.76

Question: And the “Correlation with AUCsum at 8 weeks: USP11” value ([1]; U44839, P-value 0.3998)?
Answer: 0.16

Question: What about the “Correlation with AUCsum at 16 weeks: ACTN4” value ([1]; U48734, P-value 0.0003) of the same compound?
Answer: 0.71

Question: What about the “Correlation with AUCsum at 8 weeks: ACTN4” value ([1]; U48734, P-value 0.0721) of the same compound?
Answer: 0.33

Question: And the “Correlation with AUCsum at 16 weeks: FOXM1” value ([1]; U90917, P-value 0.0001)?
Answer: 0.75

Question: What about the “Correlation with AUCsum at 8 weeks: FOXM1” value ([1]; U90917, P-value 0.206) of the same compound?
Answer: 0.24

Question: What about the “Correlation with AUCsum at 16 weeks: SULT2B1” value ([1]; U92315, P-value 0.0005) of the same compound?
Answer: 0.69

Question: What about the “Correlation with AUCsum at 8 weeks: SULT2B1” value ([1]; U92315, P-value 0.1066) of the same compound?
Answer: 0.30

Question: What about the clearance (clinical; intravenous) of the same compound?
Answer: 24.2 mL/min

Question: And the clearance (clinical; iv)?
Answer: 23.2 mL/min

Question: What about the “Spearman correlation to Ceoi: duration of Pain abdomen” value ([2]; N patients 13, P-value 0.01) of the same compound?
Answer: 0.01 (0.873)

Question: What about the “Correlation to Ceoi: severity of Myalgia” value ([2]; N patients 13, P-value 0.013, Ceoi = CCI-779 concentration at end of infusion) of the same compound?
Answer: 0.013 (0.414)

Question: What about the “Correlation to Ceoi: severity of Fever” value ([2]; N patients 17, P-value 0.022) of the same compound?
Answer: 0.022 (0.402)

Question: And the “Spearman correlation to Ceoi: duration of Fever” value ([2]; N patients 17, P-value 0.04)?
Answer: 0.04 (−0.626)

Question: And the “Spearman correlation to Ceoi: duration of Anorexia” value ([2]; N patients 22, P-value 0.015)?
Answer: 0.015 (0.597)

Question: What about the half-life [3] of the same compound?
Answer: ~14 h

Question: What about the clearance ([3]; 25 mg) of the same compound?
Answer: ~333 mL/min

Question: What about the clearance ([3]; 250 mg) of the same compound?
Answer: ~1670 mL/min
